According to patent publication US4337260A, “Imidazopyridine-spiro-piperidine compounds” (Yoshitomi Pharmaceutical Industries, Ltd., priority 1981, dated 1982):

What was measured:
[1] = Cataleptogenic activity; conditions: rat, in vivo, ip; Wistar female rats; from total points of the maximum appearance of catatonia; read-out: Cataleptogenic Activity ED50
Description: (2) Cataleptogenic Activity
The test was performed according to the method described by W. Wirth et al. in "Archives Internationales de Pharmacodynamie et de Therapie", vol, 115, 1 ff (1958).
Groups of 5 Wistar female rats each were used. […] The ED50 was determined from total points of the maximum appearance of catatonia.

[2] = test system: apomorphine-induced vomiting; assay: Effect on apomorphine-induced vomiting; assay type: in vivo; conditions: Canis lupus familiaris, po, 2 hours prior to apomorphine hydrochloride (0.1 mg/kg, s.c.); beagle dogs; vomiting checked for 2 hours
Description: (1) Effect on apomorphine-induced vomiting
The test was performed according to the method described by M. Nakanishi et al. in "Arzneimittel-Forschung", vol. 21, 391 ff (1971).
Groups of 5-10 beagle dogs of both sexes each were used. The test compound was administered orally 2 hours prior to the treatment with apomorphine hydrochloride (0.1 mg/kg, s.c.). The incidence of vomiting was checked for 2 hours, and the ED50 (50% effective dose) was determined.

Compound	TD50 [1]	ED50 [2]
CN(C)CCCN1c2ccccc2Sc2ccc(Cl)cc21 [Chlorpromazine, reference compound]	12 mg/kg	5.1 mg/kg
Cl.Cl.O.O=C1NC2CCCCN2C12CCN(CCCN1c3ccccc3CCc3ccccc31)CC2 (centres unmarked) [Test Compound A, 1'-[3-(10,11-dihydro-5H-dibenzo[b,f]azepin-5-yl)propyl]-1,2,3,5,6,7,8,8a-octahydro-2-oxo-imidazo[1,2-a]pyridine-3-spiro-4'-piperidine dihydrochloride monohydrate]	> 50 mg/kg	2.5 mg/kg
Cl.Cl.O.O=C1NC2CCCCN2C12CCN(CCCN1c3ccccc3CCc3ccc(Cl)cc31)CC2 (centres unmarked) [Test Compound B, 1'-[3-(3-chloro-10,11-dihydro-5H-dibenz[b,f]azepin-5yl)propyl]-1,2,3,5,6,7,8,8a-octahydro-2-oxo-imidazo[1,2-a]pyridine-3spiro-4'-piperidine dihydrochloride monohydrate]	> 50 mg/kg	0.5 mg/kg
Cl.Cl.O.O=C1N=C2CCCCN2C12CCN(CCCN1c3ccccc3CCc3ccccc31)CC2 [Test Compound C, 1'-[3-(10,11-dihydro-5H-dibenz[b,f]azepin-5-yl)propyl]-2,3,5,6,7,8-hexahydro-2-oxo-imidazo[1,2-a]pyridine-3-spiro-4'-piperidine dihydrochloride monohydrate]	> 50 mg/kg	2 mg/kg
